Patent US9951063B2, “8-(piperazin-1-yl)-1,2,3,4-tetrahydro-isoquinoline derivatives” (IDORSIA PHARMACEUTICALS LTD, priority 2014, dated 2018)
pIC50: −log10 of the molar value.

Target: human CXCR3A (Homo sapiens (Human), UniProt P49682)
Test: FLIPR assay (inhibition of CXCL10-induced calcium signal)
Type: cell-based
Settings: engineered CHO-K1 cells expressing human CXCR3A coupled to Galpha(16); Fluo-4-AM; CXCL10 agonist 20 nM; mean values where determined several times
Summary of the method: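 CHO-K1 cells expressing human CXCR3A coupled to Gα16 were loaded with Fluo-4-AM for 1 h in HBSS/20 mM Hepes pH 7.4 with probenecid. Compound was added, then CXCL10 (20 nM as dispensed). Baseline-subtracted peak fluorescence gave inhibition curves and IC50, averaged over repeats.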

Chain of human CXCR3A (P49682 whole entry): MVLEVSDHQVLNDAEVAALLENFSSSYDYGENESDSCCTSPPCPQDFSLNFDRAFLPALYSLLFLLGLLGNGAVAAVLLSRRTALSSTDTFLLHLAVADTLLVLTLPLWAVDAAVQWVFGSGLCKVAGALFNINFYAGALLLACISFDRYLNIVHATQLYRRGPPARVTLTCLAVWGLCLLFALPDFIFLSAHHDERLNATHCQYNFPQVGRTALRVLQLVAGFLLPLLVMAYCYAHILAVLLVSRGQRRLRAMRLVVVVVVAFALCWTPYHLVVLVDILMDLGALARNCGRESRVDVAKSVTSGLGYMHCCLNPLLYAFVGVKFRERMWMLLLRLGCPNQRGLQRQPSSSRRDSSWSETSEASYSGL

SMILES | pIC50
C[C@@H]1CN(c2cccc3c2CN(C(=O)c2ccc4ncccc4c2)CC3)CCN1C(=O)Cn1cnc2cccnc21 [Example 85, 2-Imidazo[4,5-b]pyridin-3-yl-1-{(R)-2-methyl-4-[2-(quinoline-6-carbonyl)-1,2,3,4-tetrahydro-isoquinolin-8-yl]-piperazin-1-yl}-ethanone] | 6.06
C[C@@H]1CN(c2cccc3c2CN(C(=O)Cn2cnc4ccccc42)CC3)CCN1C(=O)Cn1cnc2cccnc21 [Example 86, 1-{(R)-4-[2-(2-Benzoimidazol-1-yl-acetyl)-1,2,3,4-tetrahydro-isoquinolin-8-yl]-2-methyl-piperazin-1-yl}-2-imidazo[4,5-b]pyridin-3-yl-ethanone] | 6.16
C[C@@H]1CN(c2cccc3c2CN(C(=O)Cn2cccn2)CC3)CCN1C(=O)Cn1cnc2cccnc21 [Example 87, 2-Imidazo[4,5-b]pyridin-3-yl-1-{(R)-2-methyl-4-[2-(2-pyrazol-1-yl-acetyl)-1,2,3,4-tetrahydro-isoquinolin-8-yl]-piperazin-1-yl}-ethanone] | 5.27
C[C@@H]1CN(c2cccc3c2CN(C(=O)c2ccnn2C)CC3)CCN1C(=O)Cn1cnc2cccnc21 [Example 89, 2-Imidazo[4,5-b]pyridin-3-yl-1-{(R)-2-methyl-4-[2-(2-methyl-2H-pyrazole-3-carbonyl)-1,2,3,4-tetrahydro-isoquinolin-8-yl]-piperazin-1-yl}-ethanone] | 6.02
Cc1ccc(N2CCc3cccc(N4CCN(C(=O)Cn5cnc6cccnc65)[C@H](C)C4)c3C2)nc1 [Example 90, 2-Imidazo[4,5-b]pyridin-3-yl-1-{(R)-2-methyl-4-[2-(5-methyl-pyridin-2-yl)-1,2,3,4-tetrahydro-isoquinolin-8-yl]-piperazin-1-yl}-ethanone] | 7.95
C[C@@H]1CN(c2cccc3c2CN(c2ccc(Cl)cc2)CC3)CCN1C(=O)Cn1cnc2cccnc21 [Example 93, 1-{(R)-4-[2-(4-Chloro-phenyl)-1,2,3,4-tetrahydro-isoquinolin-8-yl]-2-methyl-piperazin-1-yl}-2-imidazo[4,5-b]pyridin-3-yl-ethanone] | 8.12
COc1ccccc1N1CCc2cccc(N3CCN(C(=O)Cn4cnc5cccnc54)[C@H](C)C3)c2C1 [Example 94, 2-Imidazo[4,5-b]pyridin-3-yl-1-{(R)-4-[2-(2-methoxy-phenyl)-1,2,3,4-tetrahydro-isoquinolin-8-yl]-2-methyl-piperazin-1-yl}-ethanone] | 7.21
C[C@@H]1CN(c2cccc3c2CN(c2ccc(C(F)(F)F)cc2)CC3)CCN1C(=O)Cn1cnc2cccnc21 [Example 96, 2-Imidazo[4,5-b]pyridin-3-yl-1-{(R)-2-methyl-4-[2-(4-trifluoromethyl-phenyl)-1,2,3,4-tetrahydro-isoquinolin-8-yl]-piperazin-1-yl}-ethanone] | 7.59
COc1cccc(N2CCc3cccc(N4CCN(C(=O)Cn5cnc6cccnc65)[C@H](C)C4)c3C2)c1 [Example 97, 2-Imidazo[4,5-b]pyridin-3-yl-1-{(R)-4-[2-(3-methoxy-phenyl)-1,2,3,4-tetrahydro-isoquinolin-8-yl]-2-methyl-piperazin-1-yl}-ethanone] | 8.36
C[C@@H]1CN(c2cccc3c2CN(c2ccc(OC(F)(F)F)cc2)CC3)CCN1C(=O)Cn1cnc2cccnc21 [Example 98, 2-Imidazo[4,5-b]pyridin-3-yl-1-{(R)-2-methyl-4-[2-(4-trifluoromethoxy-phenyl)-1,2,3,4-tetrahydro-isoquinolin-8-yl]-piperazin-1-yl}-ethanone] | 7.94
C[C@@H]1CN(c2cccc3c2CN(c2ccc(F)cc2)CC3)CCN1C(=O)Cn1cnc2cccnc21 [Example 99, 1-{(R)-4-[2-(4-Fluoro-phenyl)-1,2,3,4-tetrahydro-isoquinolin-8-yl]-2-methyl-piperazin-1-yl}-2-imidazo[4,5-b]pyridin-3-yl-ethanone] | 8.08
C[C@@H]1CN(c2cccc3c2CN(c2ccc(C(F)(F)F)nc2)CC3)CCN1C(=O)Cn1cnc2cccnc21 [Example 100, 2-Imidazo[4,5-b]pyridin-3-yl-1-{(R)-2-methyl-4-[2-(6-trifluoromethyl-pyridin-3-yl)-1,2,3,4-tetrahydro-isoquinolin-8-yl]-piperazin-1-yl}-ethanone] | 8.90
C[C@@H]1CN(c2cccc3c2CN(c2ccccc2)CC3)CCN1C(=O)Cn1cnc2cccnc21 [Example 101, 2-Imidazo[4,5-b]pyridin-3-yl-1-[(R)-2-methyl-4-(2-phenyl-1,2,3,4-tetrahydro-isoquinolin-8-yl)-piperazin-1-yl]-ethanone] | 7.83
C[C@@H]1CN(c2cccc3c2CN(c2ncccn2)CC3)CCN1C(=O)Cn1cnc2cccnc21 [Example 102, 2-Imidazo[4,5-b]pyridin-3-yl-1-[(R)-2-methyl-4-(2-pyrimidin-2-yl-1,2,3,4-tetrahydro-isoquinolin-8-yl)-piperazin-1-yl]-ethanone] | 7.54
C[C@@H]1CN(c2cccc3c2CN(c2ccc(C(F)(F)F)cn2)CC3)CCN1C(=O)Cn1cnc2cccnc21 [Example 103, 2-Imidazo[4,5-b]pyridin-3-yl-1-{(R)-2-methyl-4-[2-(5-trifluoromethyl-pyridin-2-yl)-1,2,3,4-tetrahydro-isoquinolin-8-yl]-piperazin-1-yl}-ethanone] | 7.68
Cc1ncc(N2CCc3cccc(N4CCN(C(=O)Cn5cnc6cccnc65)[C@H](C)C4)c3C2)cn1 [Example 109, 2-Imidazo[4,5-b]pyridin-3-yl-1-{(R)-2-methyl-4-[2-(2-methyl-pyrimidin-5-yl)-1,2,3,4-tetrahydro-isoquinolin-8-yl]-piperazin-1-yl}-ethanone] | 7.90
CCCc1ncc(N2CCc3cccc(N4CCN(C(=O)Cn5cnc6cccnc65)[C@H](C)C4)c3C2)cn1 [Example 110, 2-Imidazo[4,5-b]pyridin-3-yl-1-{(R)-2-methyl-4-[2-(2-propyl-pyrimidin-5-yl)-1,2,3,4-tetrahydro-isoquinolin-8-yl]-piperazin-1-yl}-ethanone] | 9.07
CC(C)Oc1ncc(N2CCc3cccc(N4CCN(C(=O)Cn5cnc6cccnc65)[C@H](C)C4)c3C2)cn1 [Example 111, 2-Imidazo[4,5-b]pyridin-3-yl-1-{(R)-4-[2-(2-isopropoxy-pyrimidin-5-yl)-1,2,3,4-tetrahydro-isoquinolin-8-yl]-2-methyl-piperazin-1-yl}-ethanone] | 8.32
C[C@@H]1CN(c2cccc3c2CN(c2cnc(OCC(F)(F)F)nc2)CC3)CCN1C(=O)Cn1cnc2cccnc21 [Example 112, 2-Imidazo[4,5-b]pyridin-3-yl-1-((R)-2-methyl-4-{2-[2-(2,2,2-trifluoro-ethoxy)-pyrimidin-5-yl]-1,2,3,4-tetrahydro-isoquinolin-8-yl}-piperazin-1-yl)-ethanone] | 8.53

The remaining lines, values ahead:

pIC50 | SMILES
5.72 | C[C@@H]1CN(c2cccc3c2CN(C(=O)CN2CCOCC2)CC3)CCN1C(=O)Cn1cnc2cccnc21 [Example 88, 2-Imidazo[4,5-b]pyridin-3-yl-1-{(R)-2-methyl-4-[2-(2-morpholin-4-yl-acetyl)-1,2,3,4-tetrahydro-isoquinolin-8-yl]-piperazin-1-yl}-ethanone]
8.10 | C[C@@H]1CN(c2cccc3c2CN(c2ccc(F)cn2)CC3)CCN1C(=O)Cn1cnc2cccnc21 [Example 91, 1-{(R)-4-[2-(5-Fluoro-pyridin-2-yl)-1,2,3,4-tetrahydro-isoquinolin-8-yl]-2-methyl-piperazin-1-yl}-2-imidazo[4,5-b]pyridin-3-yl-ethanone]
9.01 | Cc1ccc(N2CCc3cccc(N4CCN(C(=O)Cn5cnc6cccnc65)[C@H](C)C4)c3C2)cn1 [Example 92, 2-Imidazo[4,5-b]pyridin-3-yl-1-{(R)-2-methyl-4-[2-(6-methyl-pyridin-3-yl)-1,2,3,4-tetrahydro-isoquinolin-8-yl]-piperazin-1-yl}-ethanone]
8.11 | C[C@@H]1CN(c2cccc3c2CN(c2ccc(C#N)cc2)CC3)CCN1C(=O)Cn1cnc2cccnc21 [Example 95, 4-{8-[(R)-4-(2-Imidazo[4,5-b]pyridin-3-yl-acetyl)-3-methyl-piperazin-1-yl]-3,4-dihydro-1H-isoquinolin-2-yl}-benzonitrile]
8.01 | C[C@@H]1CN(c2cccc3c2CN(c2ccccn2)CC3)CCN1C(=O)Cn1cnc2cccnc21 [Example 104, 2-Imidazo[4,5-b]pyridin-3-yl-1-[(R)-2-methyl-4-(2-pyridin-2-yl-1,2,3,4-tetrahydro-isoquinolin-8-yl)-piperazin-1-yl]-ethanone]
7.69 | COc1ccc(N2CCc3cccc(N4CCN(C(=O)Cn5cnc6cccnc65)[C@H](C)C4)c3C2)cc1 [Example 105, 2-Imidazo[4,5-b]pyridin-3-yl-1-{(R)-4-[2-(4-methoxy-phenyl)-1,2,3,4-tetrahydro-isoquinolin-8-yl]-2-methyl-piperazin-1-yl}-ethanone]
8.26 | C[C@@H]1CN(c2cccc3c2CN(c2cncnc2)CC3)CCN1C(=O)Cn1cnc2cccnc21 [Example 106, 2-Imidazo[4,5-b]pyridin-3-yl-1-[(R)-2-methyl-4-(2-pyrimidin-5-yl-1,2,3,4-tetrahydro-isoquinolin-8-yl)-piperazin-1-yl]-ethanone]
8.76 | C[C@@H]1CN(c2cccc3c2CN(c2cnc(C(F)(F)F)nc2)CC3)CCN1C(=O)Cn1cnc2cccnc21 [Example 107, 2-Imidazo[4,5-b]pyridin-3-yl-1-{(R)-2-methyl-4-[2-(2-trifluoromethyl-pyrimidin-5-yl)-1,2,3,4-tetrahydro-isoquinolin-8-yl]-piperazin-1-yl}-ethanone]
7.49 | Cc1cnc(N2CCc3cccc(N4CCN(C(=O)Cn5cnc6cccnc65)[C@H](C)C4)c3C2)nc1 [Example 108, 2-Imidazo[4,5-b]pyridin-3-yl-1-{(R)-2-methyl-4-[2-(5-methyl-pyrimidin-2-yl)-1,2,3,4-tetrahydro-isoquinolin-8-yl]-piperazin-1-yl}-ethanone]
